Patent US20110086818A1, “METHODS, COMPOSITIONS, AND KITS FOR TREATING PAIN AND PRURITUS” (priority 2008, published 2011)

Columns and labels:
[1] = tested on: rats; experiment: sciatic nerve injection, motor function score and placing reflex
Method: (§1) Motor effects were scored according to a scale of 0 (no effect; normal gait and limb placement), 1 (limb movement but with abnormal limb placement and movement) or 2 (complete loss of limb movement). […] For co-application of QX-314 and capsaicin into the para-sciatic nerve region, we injected QX-314 first, followed 10 minutes later by capsaicin, with the idea that QX-314 would be present extracellularly and ready to enter TRPV1 channels as soon as they were activated.
(§2) For sciatic nerve injections, animals were first habituated to handling for 10 days. Lidocaine (0.2% or 2%, 100 μL); QX-314 (0.2%, 100 μL) alone; capsaicin (50 μg in 100 μL) alone, or QX-314 followed by capsaicin (10 minutes interval) were injected into the area of sciatic nerve below the hip joint. Mechanical and thermal thresholds were determined using von Frey filaments and radiant heat. […] Walking, climbing, walking on the rod and placing reflex were examined. […] All experiments were done with the experimenter blinded.

[2] = tested on: voltage-dependent sodium channels; experiment: whole-cell voltage clamp recordings of sodium current in small (capsaicin-sensitive) DRG neurons; type: cell-based, rat; details: for inhibition (decrease) of sodium current: small capsaicin-sensitive DRG neurons, 5 mM QX-314 (5-minute application), 1 μM capsaicin (1-10 minutes), alone or together, steps from −70 mV, n=25
Method: We recorded current through voltage-dependent sodium channels using whole-cell voltage clamp recordings from adult rat DRG neurons. To select for nociceptors, we recorded from small (24±5 μm; n=25) neurons and tested the neurons for the expression of TRPV1 receptors by a short (1-sec) application of 1 μM capsaicin. In 25/25 of small neurons tested, capsaicin produced a prolonged (10±3 sec) inward current (FIG. 1A, upper panel), consistent with the neurons being nociceptors. Sodium currents were elicited by depolarizing steps from a holding potential of −70 mV.
(§3) Dorsal root ganglia from 6-8 week old Sprague-Dawley rats were removed and placed into Dulbecco's Minimum Essential Medium containing 1% penicillin-streptomycin (Sigma), then treated for 90 minutes with 5 mg/ml collagenase, 1 mg/ml Dispase II (Roche, Indianapolis, Ind.) and for 7 minutes with 0.25% trypsin, followed by addition of 2.5% trypsin inhibitor. Cells were triturated in the presence of DNAase I […] (50 U), centrifuged through 15% BSA (Sigma), resuspended in 1 ml Neurobasal medium (Sigma), 10 μM AraC, NGF (50 ng/ml) and GDNF (2 ng/ml) and plated onto poly-lysine (500 μg/ml) and laminin ([…]) coated 35 mm tissue culture dishes (Becton Dickinson) at 8000-9000 per well. Cultures were incubated at 37° C., 5% carbon dioxide. Recordings were made within 48 hours after plating. Average size of small neurons chosen as likely nociceptors was 23±6 μm (n=50) and that of large neurons was 48±8 μM (n=10).
Whole-cell voltage-clamp or current-clamp recordings were made using an Axopatch 200 A amplifier (Axon Instruments, Union City, Calif.) and patch pipettes with resistances of 1-2 MΩ. For voltage-clamp recordings pipette capacitance was reduced by wrapping the shank by Parafilm or coating the shank with Sylgard (Dow Corning, Midland, Mich.). Cell capacitance was compensated for using the amplifier circuitry, and linear leakage currents subtracted using a P/4 procedure. Series resistance (usually 3-7 MO and always less than 10 MΩ) was compensated by ˜80%. Voltage clamp recordings used solutions designed to isolate sodium currents by blocking potassium and calcium currents and with reduced external sodium to improve voltage clamp. Pipette solution was 110 mM CsCl, 1 mM CaCl2, 2 mM MgCl2, 11 mM EGTA, and 10 mM HEPES, pH adjusted to 7.4 with ˜25 mM CsOH. External solution was 60 mM NaCl, 60 mM choline chloride, 4 mM KCl, 2 mM CaCl2, 1 mM MgCl2, 0.1 mM CdCl2, 15 mM tetraethylammonium chloride, 5 mM 4-aminopyridine, 10 mM glucose, and 10 mM HEPES, pH adjusted to 7.4 with NaOH. No correction was made for the small liquid junction potential (−2.2 mV).
Command protocols were generated and data digitized using a Digidata 1200 A/D interface with pCLAMP 8.2 software (Axon Instruments, Union City, Calif.). […]

[3] = tested on: voltage-dependent sodium channels; experiment: whole-cell voltage clamp recordings of sodium current in large (capsaicin-insensitive) DRG neurons; type: cell-based, rat; details: large DRG neurons (>40 μm); 10-minute application; n=10
From the text: To test whether the ability of co-applied capsaicin and QX-314 to inhibit sodium current is selective for cells that express TRPV1 receptors, we also recorded from large DRG neurons (soma diameter >40 μm) (FIG. 1A, right). […] As for small diameter neurons, QX-314 applied alone had little or no effect on sodium current (current increased by 8±4% after a 10-minute application, n=10). Unlike small diameter neurons, capsaicin had no effect on sodium current in large diameter neurons (average increase by 3±2% after a 10-minute application, n=10).
as §3, with “Average size of small neurons chosen as likely nociceptors was 23±6 μm (n=50) and that of large neurons was 48±8 μM (n=10).” left out

[4] = tested on: small DRG neurons; experiment: current clamp recording of action potentials in small nociceptive-like DRG neurons; type: cell-based, rat; details: QX-314 5 mM, capsaicin 1 μM
[5] = tested on: adult rats; experiment: intraplantar injection, mechanical threshold for paw withdrawal (von Frey hairs); type: in vivo, rat; details: QX-314 10 μL of 2%, capsaicin 10 μg/10 μL, capsaicin effect at 15 and 30 minutes
Method: (§4) FIG. 3. Intraplantar injection of capsaicin (10 μg/10 μL) together with QX-314 (2%, 10 μL) leads to a prolonged local anesthesia to mechanical (von Frey filaments) and thermal noxious stimuli. […] (*=p<0.05, n=6 for each group). […] Arrow indicates cutoff, and numbers of animals not responding to strongest stimulus is indicated for time points with largest effects. (*=p<0.05, n=6 for each group).
We next examined if the combination of capsaicin and QX-314 can reduce pain behavior in vivo. […] In three animals the paw was insensitive to even the highest value von Frey filament (57 g). The elevated mechanical threshold lasted for about three hours and then gradually returned back to basal levels by four hours (FIG. 3A).
(§5) For intraplantar injections, rats were first habituated to handling and tests performed with the experimenter blind to the treatment. Intraplantar injections of vehicle (20% ethanol, 5% Tween 20 in saline, 10 μL) capsaicin (1 μg/μL), QX-314 (2%) or mixture of capsaicin and QX-314 into the left hindpaw were made and mechanical and thermal sensitivities determined using von Frey hairs and radiant heat respectively.

[6] = tested on: adult rats; experiment: intraplantar injection, thermal (radiant heat) response latency; type: in vivo, rat; details: QX-314 at 30 min, capsaicin at 15 and 30 min, combination 2 hours after injection, heat applied for 25 seconds
Method: as §4
Similar effects were seen examining sensitivity to a standardized noxious radiant heat stimulus. […] This effect remained for 4 hours after the injection (FIG. 3B).
as §5

[7] = tested on: rats; experiment: sciatic nerve injection, mechanical threshold (von Frey filaments); type: in vivo, rat; details: QX-314 0.2%, 100 μL, capsaicin 0.5 μg/μL, for 30 min after injection
Method: as §1, §2

[8] = tested on: rats; experiment: sciatic nerve injection, thermal (radiant heat) response latency; type: in vivo, rat; details: QX-314 0.2%, 100 μL, capsaicin 0.5 μg/μL, for 30 min after injection
Method: as §1, §2

[9] = target: T1, TRPV1 receptors (Rattus norvegicus, UniProt O35433); experiment: capsaicin-evoked inward current in DRG neurons (test for expression of TRPV1 receptors); type: cell-based
T1 construct: Dorsal root ganglia from 6-8 week old Sprague-Dawley rats were removed; endogenous in cells; host or cells: primary cultured dorsal root ganglion neurons from 6-8 week old Sprague-Dawley rats
Method: QX-314 (5 mM), capsaicin (1 μM or 500 nM), or their combination was applied using custom-designed multibarrel fast drug delivery system placed about 200-250 μm from the neuron. Solution exchange was complete in less than a second.

[10] = tested on: adult rats; experiment: intraplantar injection, spontaneous flinching; type: in vivo, rat; details: first 5 minutes after intraplantar injection; capsaicin 10 μg/10 μL, QX-314 2%
[11] = hindpaw injection, acute pain-related response (flinches) and analgesia (FIG. 8); type: in vivo; details: injection into the hindpaw, flinches (FIG. 8)
[12] = small neurons, 1-sec application of 1 μM capsaicin

T1 sequence (O35433 whole entry): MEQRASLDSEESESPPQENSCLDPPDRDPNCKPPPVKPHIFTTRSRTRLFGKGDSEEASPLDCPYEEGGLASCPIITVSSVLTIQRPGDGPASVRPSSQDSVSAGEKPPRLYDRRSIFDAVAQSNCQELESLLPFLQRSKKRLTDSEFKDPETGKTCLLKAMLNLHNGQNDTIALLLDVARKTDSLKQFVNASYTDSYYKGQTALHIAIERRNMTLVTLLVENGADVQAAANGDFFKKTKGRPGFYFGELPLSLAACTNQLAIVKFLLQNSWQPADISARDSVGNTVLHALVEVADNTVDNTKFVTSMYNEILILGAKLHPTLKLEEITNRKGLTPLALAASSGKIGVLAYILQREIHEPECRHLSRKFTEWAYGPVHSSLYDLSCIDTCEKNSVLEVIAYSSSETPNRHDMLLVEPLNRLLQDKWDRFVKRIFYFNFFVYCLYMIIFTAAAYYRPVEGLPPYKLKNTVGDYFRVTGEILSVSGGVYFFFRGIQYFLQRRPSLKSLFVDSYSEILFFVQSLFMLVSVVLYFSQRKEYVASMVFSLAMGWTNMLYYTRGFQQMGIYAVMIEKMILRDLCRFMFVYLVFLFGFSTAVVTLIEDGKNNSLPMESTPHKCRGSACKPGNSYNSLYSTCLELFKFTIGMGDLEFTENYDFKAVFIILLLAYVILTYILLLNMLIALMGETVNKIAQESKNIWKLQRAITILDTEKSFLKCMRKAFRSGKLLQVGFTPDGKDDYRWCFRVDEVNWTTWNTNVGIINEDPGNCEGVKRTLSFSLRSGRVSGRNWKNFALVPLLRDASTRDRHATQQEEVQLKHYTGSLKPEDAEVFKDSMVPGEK

CCN(CC)CC(=O)Nc1c(C)cccc1C [lidocaine]
duration of complete loss of tactile stimulus-evoked placing reflex ([1]; rat, in vivo): at least 30 minutes
effect on motor function ([1]; rat, in vivo): complete paralysis of the lower limb
time to full recovery of sensory and motor deficits ([1]; rat, in vivo): ≤ 45 min

CC[N+](CC)(CC)CC(=O)Nc1c(C)cccc1C [QX-314]
effect of external application on sodium channels ([2]; external QX-314 alone): no effect
inhibition (decrease) of sodium current [2]: 3±0.5%
increase of sodium current [3]: 8±4%
effect on action potential generation / amplitude [4]: had no effect
effect on mechanical threshold for withdrawal response [5]: no significant effect
effect on thermal response latency (noxious radiant heat) [6]: transiently reduced the thermal response latency
effect on mechanical threshold [7]: no significant effect
effect on thermal response latency [8]: no significant effect
effect on motor function ([1]; rat, in vivo): no effect on motor function

C=CCc1ccc(O)c(OC)c1 [eugenol, 2-methoxy-4-(2-propenyl)phenol]
inhibition of sodium current ([2]; small dorsal root ganglion neurons, eugenol alone (FIG. 5)): 10-20%

COc1cc(CNC(=O)CCCC/C=C/C(C)C)ccc1O [capsaicin]
inhibition (decrease) of sodium current [2]: 31±9%
increase of sodium current [3]: 3±2%
inward current in large DRG neurons ([9]; large DRG neurons, soma diameter >40 μm, 10 of 10): did not elicit an inward current
duration of prolonged inward current [9, 12]: 10 ± 3 s
small neurons tested in which an inward current was produced [9, 12]: 25/25
effect on action potential generation / amplitude [4]: reduced the action potential amplitude
effect on mechanical threshold for withdrawal response [5]: significantly reduced the mechanical threshold
effect on thermal response latency (noxious radiant heat) [6]: reduced
flinches in 5 min [10]: 40±6 flinches
effect on mechanical threshold [7]: reduced
effect on thermal response latency [8]: reduced
mean motor score ([1]; scale 0-2, sciatic injection, lidocaine 2% at 30 minutes, capsaicin 0.5 μg/μL, 100 μL, QX-314 0.2%, 100 μL followed 10 minutes later by capsaicin): 0.7±0.2
duration of acute pain-related response following injection [11]: approximately 15 min
